Laboratory results taken from PubChem BioAssay (NCI).
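The compound was tested at five concentrations on cells cultured in 96-well plates, with a 48-hour exposure period. TGI marks complete inhibition of growth.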

Key:
Assay in all cases: NCI tumour cell line growth inhibition, 48 h
P388 leukemia = system: P388 leukemia
SNB-78 CNS = system: SNB-78 CNS
MOLT-4 leukemia = system: MOLT-4 leukemia
OVCAR-3 ovarian = system: OVCAR-3 ovarian
SN12C renal = system: SN12C renal
IGROV1 ovarian = system: IGROV1 ovarian
EKVX NSCLC = system: EKVX NSCLC
CCRF-CEM leukemia = system: CCRF-CEM leukemia
UACC-62 melanoma = system: UACC-62 melanoma
CAKI-1 renal = system: CAKI-1 renal
OVCAR-5 ovarian = system: OVCAR-5 ovarian
MCF7 breast = system: MCF7 breast
HCT-15 colon = system: HCT-15 colon
SK-MEL-5 melanoma = system: SK-MEL-5 melanoma
HCC-2998 colon = system: HCC-2998 colon
SK-MEL-28 melanoma = system: SK-MEL-28 melanoma
SF-268 CNS = system: SF-268 CNS
SF-295 CNS = system: SF-295 CNS
XF 498 CNS = system: XF 498 CNS
SW-620 colon = system: SW-620 colon
HT29 colon = system: HT29 colon
SNB-19 CNS = system: SNB-19 CNS
HOP-92 NSCLC = system: HOP-92 NSCLC
M19-MEL melanoma = system: M19-MEL melanoma
OVCAR-4 ovarian = system: OVCAR-4 ovarian
UACC-257 melanoma = system: UACC-257 melanoma
RXF 393 renal = system: RXF 393 renal
HL-60(TB) leukemia = system: HL-60(TB) leukemia
MALME-3M melanoma = system: MALME-3M melanoma
A498 renal = system: A498 renal
NCI-H226 lung = system: NCI-H226 lung
SK-OV-3 ovarian = system: SK-OV-3 ovarian
UO-31 renal = system: UO-31 renal
HCT-116 colon = system: HCT-116 colon
NCI-H460 lung = system: NCI-H460 lung
SK-MEL-2 melanoma = system: SK-MEL-2 melanoma
SF-539 CNS = system: SF-539 CNS
OVCAR-8 ovarian = system: OVCAR-8 ovarian
NCI-H23 lung = system: NCI-H23 lung
KM12 colon = system: KM12 colon
U251 CNS = system: U251 CNS
P388/ADR leukemia = system: P388/ADR leukemia
A549 NSCLC = system: A549 NSCLC
HOP-18 NSCLC = system: HOP-18 NSCLC
NCI-H522 lung = system: NCI-H522 lung
K-562 leukemia = system: K-562 leukemia
SNB-75 CNS = system: SNB-75 CNS
RPMI-8226 leukemia = system: RPMI-8226 leukemia
KM20L2 colon = system: KM20L2 colon
DMS 114 small cell lung = system: DMS 114 small cell lung
SN12K1 renal = system: SN12K1 renal
DLD-1 colon = system: DLD-1 colon
DMS 273 small cell lung = system: DMS 273 small cell lung
LOX IMVI melanoma = system: LOX IMVI melanoma
HOP-62 NSCLC = system: HOP-62 NSCLC
NCI/ADR-RES ovarian = system: NCI/ADR-RES ovarian
COLO 205 colon = system: COLO 205 colon

**Q.** Which results are given for `CCCNC1=C(C)C(=O)C2=C(C1=O)[C@H](COC(N)=O)[C@]1(OC)[C@@H]3N[C@@H]3CN21`?
**A.** TGI (P388 leukemia): 39.2 µM; TGI (SNB-78 CNS): 158 µM; TGI (MOLT-4 leukemia): 31.3 µM; TGI (OVCAR-3 ovarian): 55.3 µM; TGI (SN12C renal): 69.2 µM; TGI (IGROV1 ovarian): 33.3 µM; TGI (EKVX NSCLC): 27.4 µM; TGI (CCRF-CEM leukemia): 185 µM; TGI (UACC-62 melanoma): 5.74 µM; TGI (CAKI-1 renal): 84.5 µM; TGI (OVCAR-5 ovarian): 92.4 µM; TGI (MCF7 breast): 4.15 µM; TGI (HCT-15 colon): 72 µM; TGI (SK-MEL-5 melanoma): 2.65 µM; TGI (HCC-2998 colon): 20.6 µM; TGI (SK-MEL-28 melanoma): 87.8 µM; TGI (SF-268 CNS): 77.9 µM; TGI (SF-295 CNS): 39.7 µM; TGI (XF 498 CNS): 15.3 µM; TGI (SW-620 colon): 113 µM; TGI (HT29 colon): 94.3 µM; TGI (SNB-19 CNS): 45.4 µM; TGI (HOP-92 NSCLC): 43.9 µM; TGI (M19-MEL melanoma): 27.3 µM; TGI (OVCAR-4 ovarian): 19.3 µM; TGI (UACC-257 melanoma): 38.9 µM; TGI (RXF 393 renal): 46.4 µM; TGI (HL-60(TB) leukemia): 19.4 µM; TGI (MALME-3M melanoma): 26.5 µM; TGI (A498 renal): 13.6 µM; TGI (NCI-H226 lung): 34 µM; TGI (SK-OV-3 ovarian): 170 µM; TGI (UO-31 renal): 67.3 µM; TGI (HCT-116 colon): 32.2 µM; TGI (NCI-H460 lung): 4.17 µM; TGI (SK-MEL-2 melanoma): 34.3 µM; TGI (SF-539 CNS): 45.3 µM; TGI (OVCAR-8 ovarian): 53 µM; TGI (NCI-H23 lung): 12.5 µM; TGI (KM12 colon): 56.1 µM; TGI (U251 CNS): 40.6 µM; TGI (P388/ADR leukemia): 54.7 µM; TGI (A549 NSCLC): 8.69 µM; TGI (HOP-18 NSCLC): 53.4 µM; TGI (NCI-H522 lung): 12.5 µM; TGI (K-562 leukemia): 174 µM; TGI (SNB-75 CNS): 24.6 µM; TGI (RPMI-8226 leukemia): 73.9 µM; TGI (KM20L2 colon): 121 µM; TGI (DMS 114 small cell lung): 59 µM; TGI (SN12K1 renal): 44.1 µM; TGI (DLD-1 colon): 79.9 µM; TGI (DMS 273 small cell lung): 15.8 µM; TGI (LOX IMVI melanoma): 19.1 µM; TGI (HOP-62 NSCLC): 4.42 µM; TGI (NCI/ADR-RES ovarian): 300 µM; TGI (COLO 205 colon): 45 µM
